How the values were obtained:
Type in all cases: in vivo
[1] = system: Italian ryegrass (Lolium multiflorum); experiment: Test A preemergence, visual plant response rating; settings: for Ryegrass, Italian plant response rating (0 to 100 scale): approx. 10 days
Procedure, shortened: (§1)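 Greenhouse evaluation, approx. 10 days post-spray. Soil: loam + sand. Postemergence stage: 1–2 leaves, height 2–10 cm. Vehicle: non-phytotoxic solvent blend with surfactant. Score: visual injury on a 0 (no effect) to 100 (complete control) scale.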

[2] = system: barnyardgrass (Echinochloa crus-galli); experiment: Test A preemergence, visual plant response rating; settings: for Barnyardgrass plant response rating (0 to 100 scale): approx. 10 days
Procedure, shortened: as §1

[3] = system: foxtail, green (green foxtail, Setaria viridis); experiment: Test A preemergence, visual plant response rating; settings: for Foxtail, Green plant response rating (0 to 100 scale): approx. 10 days
Procedure, shortened: as §1

[4] = system: kochia (Kochia scoparia); experiment: Test A preemergence, visual plant response rating; settings: for Kochia plant response rating (0 to 100 scale): approx. 10 days
Procedure, shortened: as §1

[5] = system: pigweed (Amaranthus retroflexus); experiment: Test A preemergence, visual plant response rating; settings: for Pigweed plant response rating (0 to 100 scale): approx. 10 days
Procedure, shortened: as §1

[6] = system: ragweed (common ragweed, Ambrosia elatior); experiment: Test A preemergence, visual plant response rating; settings: for Ragweed plant response rating (0 to 100 scale): approx. 10 days
Procedure, shortened: as §1

[7] = system: Italian ryegrass (Lolium multiflorum); experiment: Test A postemergence, visual plant response rating; settings: for Ryegrass, Italian plant response rating: 125 g ai/ha, 0 to 100 scale (0 no effect, 100 complete control)
Procedure, shortened: as §1

[8] = system: barnyardgrass (Echinochloa crus-galli); experiment: Test A postemergence, visual plant response rating; settings: for Barnyardgrass plant response rating (0 to 100 scale): 500 g ai/ha, postemergence, 0 is no effect, 100 is complete control; for Barnyardgrass plant response rating: Postemergence, 125 g ai/ha, 0 to 100 scale (0 no effect, 100 complete control)
Procedure, shortened: as §1

[9] = system: blackgrass (Alopecurus myosuroides); experiment: Test A postemergence, visual plant response rating; settings: for Blackgrass plant response rating (0 to 100 scale): 500 g ai/ha, postemergence, 0 is no effect, 100 is complete control; for Blackgrass plant response rating: Postemergence, 125 g ai/ha, 0 to 100 scale (0 no effect, 100 complete control)
Procedure, shortened: as §1

[10] = system: corn (Zea mays); experiment: Test A postemergence, visual plant response rating; settings: for Corn plant response rating (0 to 100 scale): 500 g ai/ha, postemergence, 0 is no effect, 100 is complete control; for Corn plant response rating: Postemergence, 125 g ai/ha, 0 to 100 scale (0 no effect, 100 complete control)
Procedure, shortened: as §1

[11] = system: foxtail, green (green foxtail, Setaria viridis); experiment: Test A postemergence, visual plant response rating; settings: for Foxtail, Green plant response rating (0 to 100 scale): 500 g ai/ha, postemergence, 0 is no effect, 100 is complete control; for Foxtail, Green plant response rating: Postemergence, 125 g ai/ha, 0 to 100 scale (0 no effect, 100 complete control)
Procedure, shortened: as §1

[12] = system: galium (catchweed bedstraw, Galium aparine); experiment: Test A postemergence, visual plant response rating; settings: for Galium plant response rating (0 to 100 scale): 500 g ai/ha, postemergence, 0 is no effect, 100 is complete control; for Galium plant response rating: Postemergence, 125 g ai/ha, 0 to 100 scale (0 no effect, 100 complete control)
Procedure, shortened: as §1

[13] = system: kochia (Kochia scoparia); experiment: Test A postemergence, visual plant response rating; settings: for Kochia plant response rating (0 to 100 scale): 500 g ai/ha, postemergence, 0 is no effect, 100 is complete control; for Kochia plant response rating: Postemergence, 125 g ai/ha, 0 to 100 scale (0 no effect, 100 complete control)
Procedure, shortened: as §1

[14] = system: pigweed (Amaranthus retroflexus); experiment: Test A postemergence, visual plant response rating; settings: for Pigweed plant response rating (0 to 100 scale): 500 g ai/ha, postemergence, 0 is no effect, 100 is complete control; for Pigweed plant response rating: Postemergence, 125 g ai/ha, 0 to 100 scale (0 no effect, 100 complete control)
Procedure, shortened: as §1

[15] = system: ragweed (common ragweed, Ambrosia elatior); experiment: Test A postemergence, visual plant response rating; settings: for Ragweed plant response rating (0 to 100 scale): 500 g ai/ha, postemergence, 0 is no effect, 100 is complete control; for Ragweed plant response rating: Postemergence, 125 g ai/ha, 0 to 100 scale (0 no effect, 100 complete control)
Procedure, shortened: as §1

[16] = system: wheat (Triticum aestivum); experiment: Test A postemergence, visual plant response rating; settings: for Wheat plant response rating: 0 to 100 scale (0 no effect, 100 complete control)
Procedure, shortened: as §1

[17] = system: barnyardgrass (Echinochloa crus-galli); experiment: Test B flooded paddy test, visual plant response rating; settings: 250 g ai/ha, Flood, applied to paddy water, 2-leaf stage, evaluated after 13 to 15 days
Procedure, shortened: (§2)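 2-leaf plants; pots flooded 3 cm over soil surface; compound dosed straight into the floodwater; depth kept constant; greenhouse 13–15 d; visual rating vs. untreated controls.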

[18] = system: ducksalad (Heteranhera limosa); experiment: as above; settings: 250 g ai/ha, Flood, applied to paddy water, 2-leaf stage, evaluated after 13 to 15 days
Procedure, shortened: as §2

[19] = system: rice (Oryza sativa); experiment: as above; settings: 250 g ai/ha, Flood, applied to paddy water, 2-leaf stage, evaluated after 13 to 15 days
Procedure, shortened: as §2

[20] = system: sedge, umbrella (small-flower umbrella sedge, Cyperus difformis); experiment: as above; settings: 250 g ai/ha, Flood, applied to paddy water, 2-leaf stage, evaluated after 13 to 15 days
Procedure, shortened: as §2

[21] = 500 g ai/ha, postemergence, 0 is no effect, 100 is complete control
[22] = 125 g ai/ha, preemergence, 0 to 100 scale, 0 no effect, 100 complete control

| SMILES | Ryegrass, Italian plant response rating (0 to 100 scale) ([1]; 500 g ai/ha Preemergence) | Barnyardgrass plant response rating (0 to 100 scale) ([2]; 500 g ai/ha Preemergence) | Foxtail, Green plant response rating (0 to 100 scale) ([3]; 500 g ai/ha Preemergence) | Kochia plant response rating (0 to 100 scale) ([4]; 500 g ai/ha Preemergence) | Pigweed plant response rating (0 to 100 scale) ([5]; 500 g ai/ha Preemergence) | Ragweed plant response rating (0 to 100 scale) ([6]; 500 g ai/ha Preemergence) | Ryegrass, Italian plant response rating (0 to 100 scale) [7, 21] | Barnyardgrass plant response rating (0 to 100 scale) [8] | Barnyardgrass plant response rating [8] | Blackgrass plant response rating (0 to 100 scale) [9] | Blackgrass plant response rating [9] | Corn plant response rating (0 to 100 scale) [10] | Corn plant response rating [10] | Foxtail, Green plant response rating (0 to 100 scale) [11] | Foxtail, Green plant response rating [11] | Kochia plant response rating (0 to 100 scale) [13] | Kochia plant response rating [13] | Pigweed plant response rating (0 to 100 scale) [14] | Pigweed plant response rating [14] | Ragweed plant response rating (0 to 100 scale) [15] | also measured |
| --- | --- | --- | --- | --- | --- | --- | --- | --- | --- | --- | --- | --- | --- | --- | --- | --- | --- | --- | --- | --- | --- |
| CCn1nc(C)c(O)c(C(=NOC)c2cccc(Cl)c2)c1=O (mixture of isomers) [Compound 2] | 60 | 50 | 50 | 0 | 0 | 0 | 80 | 30 | 0 | 20 | 0 | 0 | 0 | 20 | 0 | 20 | 10 | 10 | 0 | 20 | Ryegrass, Italian plant response rating (0 to 100 scale) ([1]; 125 g ai/ha Preemergence): 20; Barnyardgrass plant response rating (0 to 100 scale) ([2]; 125 g ai/ha Preemergence): 0; Foxtail, Green plant response rating (0 to 100 scale) ([3]; 125 g ai/ha Preemergence): 0; Kochia plant response rating (0 to 100 scale) ([4]; 125 g ai/ha Preemergence): 0; Pigweed plant response rating (0 to 100 scale) ([5]; 125 g ai/ha Preemergence): 0; Ragweed plant response rating (0 to 100 scale) ([6]; 125 g ai/ha Preemergence): 0; Ryegrass, Italian plant response rating ([7]; Postemergence): 20; Galium plant response rating (0 to 100 scale) [12]: 30; Galium plant response rating [12]: 10; Ragweed plant response rating [15]: 10; Wheat plant response rating (0 to 100 scale) [16, 21]: 10; Wheat plant response rating ([16]; Postemergence, 125 g ai/ha): 10; Plant response rating, Barnyardgrass (0 to 100 scale, 0 is no effect, 100 is complete control) [17]: 0; Plant response rating, Ducksalad (0 to 100 scale, 0 is no effect, 100 is complete control) [18]: 0; Plant response rating, Rice (0 to 100 scale, 0 is no effect, 100 is complete control) [19]: 0; Plant response rating, Sedge, Umbrella (0 to 100 scale, 0 is no effect, 100 is complete control) [20]: 0 |
| CON=C(c1cccc(Cl)c1)c1c(O)c(C)n[nH]c1=O (mixture of isomers) [Compound 143] | 50 | 30 | 80 | 10 | 0 | 0 | 60 | 40 | 10 | 40 | 10 | 20 | 0 | 40 | 20 | 20 | 0 | 20 | 0 | 0 | Ryegrass, Italian plant response rating [1, 22]: 20; Barnyardgrass plant response rating [2, 22]: 0; Foxtail, Green plant response rating [3, 22]: 30; Kochia plant response rating [4, 22]: 0; Pigweed plant response rating [5, 22]: 0; Ragweed plant response rating [6, 22]: 0; Ryegrass, Italian plant response rating (0 to 100 scale) ([7]; Postemergence, rate not given, approx. 10 days): 20; Galium plant response rating (0 to 100 scale) [12]: 0; Galium plant response rating [12]: 0; Ragweed plant response rating [15]: 0; Wheat plant response rating ([16]; Postemergence, 500 g ai/ha): 20; Wheat plant response rating (0 to 100 scale) ([16]; Postemergence, approx. 10 days): 0; Plant response rating, Barnyardgrass (0 to 100 scale, 0 is no effect, 100 is complete control) [17]: 0; Plant response rating, Ducksalad (0 to 100 scale, 0 is no effect, 100 is complete control) [18]: 0; Plant response rating, Rice (0 to 100 scale, 0 is no effect, 100 is complete control) [19]: 0; Plant response rating, Sedge, Umbrella (0 to 100 scale, 0 is no effect, 100 is complete control) [20]: 0 |
| CON=C(c1ccccc1Cl)c1c(O)c(C)nn(C)c1=O (stereo in doubt) [Compound 29] | 70 | 50 | 50 | 10 | 20 | 90 | 90 | 20 | 0 | 70 | 20 | 10 | 0 | 20 | 0 | 30 | 10 | 50 | 40 | 70 | Ryegrass, Italian plant response rating (0 to 100 scale) ([1]; 125 g ai/ha Preemergence): 20; Barnyardgrass plant response rating (0 to 100 scale) ([2]; 125 g ai/ha Preemergence): 30; Foxtail, Green plant response rating (0 to 100 scale) ([3]; 125 g ai/ha Preemergence): 30; Kochia plant response rating (0 to 100 scale) ([4]; 125 g ai/ha Preemergence): 0; Pigweed plant response rating (0 to 100 scale) ([5]; 125 g ai/ha Preemergence): 0; Ragweed plant response rating (0 to 100 scale) ([6]; 125 g ai/ha Preemergence): 30; Ryegrass, Italian plant response rating ([7]; Postemergence): 30; Galium plant response rating (0 to 100 scale) [12]: 80; Galium plant response rating [12]: 70; Ragweed plant response rating [15]: 60; Wheat plant response rating (0 to 100 scale) [16, 21]: 20; Wheat plant response rating ([16]; Postemergence, 125 g ai/ha): 20; Plant response rating, Barnyardgrass (0 to 100 scale, 0 is no effect, 100 is complete control) [17]: 0; Plant response rating, Ducksalad (0 to 100 scale, 0 is no effect, 100 is complete control) [18]: 0; Plant response rating, Rice (0 to 100 scale, 0 is no effect, 100 is complete control) [19]: 0; Plant response rating, Sedge, Umbrella (0 to 100 scale, 0 is no effect, 100 is complete control) [20]: 0 |
| CO/N=C(/c1cccc(Cl)c1)c1c(O)c(C)nn(C)c1=O [Compound 11, 4-[(Z)-(3-chlorophenyl)(methoxyimino)methyl]-5-hydroxy-2,6-dimethyl-3(2H)-pyridazinone] | 80 | 40 | 70 | 80 | 100 | 50 | 80 | 10 | 10 | 70 | 30 | 10 | 0 | 40 | 10 | 80 | 70 | 80 | 40 | 100 | Ryegrass, Italian plant response rating (0 to 100 scale) ([1]; 125 g ai/ha Preemergence): 60; Barnyardgrass plant response rating (0 to 100 scale) ([2]; 125 g ai/ha Preemergence): 0; Foxtail, Green plant response rating (0 to 100 scale) ([3]; 125 g ai/ha Preemergence): 0; Kochia plant response rating (0 to 100 scale) ([4]; 125 g ai/ha Preemergence): 10; Pigweed plant response rating (0 to 100 scale) ([5]; 125 g ai/ha Preemergence): 40; Ragweed plant response rating (0 to 100 scale) ([6]; 125 g ai/ha Preemergence): 50; Ryegrass, Italian plant response rating ([7]; Postemergence): 60; Ragweed plant response rating [15]: 80; Wheat plant response rating (0 to 100 scale) [16, 21]: 10; Wheat plant response rating ([16]; Postemergence, 125 g ai/ha): 0; Plant response rating, Barnyardgrass (0 to 100 scale, 0 is no effect, 100 is complete control) [17]: 0; Plant response rating, Ducksalad (0 to 100 scale, 0 is no effect, 100 is complete control) [18]: 0; Plant response rating, Rice (0 to 100 scale, 0 is no effect, 100 is complete control) [19]: 0; Plant response rating, Sedge, Umbrella (0 to 100 scale, 0 is no effect, 100 is complete control) [20]: 0 |
